# Key:
# eNOS [1] = assay: eNOS expression and S1177 phosphorylation in HCAE cells, western blot; type: cell-based, human; conditions: 24 h
# Procedure: (§1) Human coronary artery endothelial cells (HCAE cells, Lonza, Walkersville, Md.) were cultured in 5% CO2 at 37° C. in endothelial cell growth medium (EGM) supplemented with 2% fetal bovine serum and Single Quot supplements (Clonetics, San Diego, Calif.; containing epidermal growth factor, hydrocortisone, vascular endothelial growth factor, fibroblast growth factor, insulin growth factor, ascorbic acid, heparin, gentamycin, and amphotericin B). Cells were used between passages 4 and 6 for these studies. HCAE cells were plated at a density of 50,000 cells per well in 12-well plates and were grown for 3 days to reach confluency. […] Cells were then incubated in normoxic or 1% hypoxic conditions for the indicated times.
# (§2) The cell lysates were subjected to SDS-PAGE in a 10% polyacrylamide gel and transferred to a nitrocellulose membrane (0.2-μm, Invitrogen). After blocking with 5% milk, the membrane was incubated overnight at 4° C. with primary antibodies against phospho-eNOS (Ser 1177) and eNOS (Cell Signaling Technology, Beverly, Mass.), human type-1 arginase (clone 9C5) (Cell Sciences, Canton, Mass.), or GAPDH (Santa Cruz Biotechnology, Santa Cruz, Calif.). HRP-conjugated anti-mouse or anti-rabbit antibodies (Cell Signaling Technology) were used as secondary antibodies (HRP, horseradish peroxidase). […]
# arginase 1 = assay: Arginase 1 expression in HCAE cells with or without TNFα, western blot; type: cell-based, human; conditions: TNFα treatment
# Procedure: as §1, §2
# eNOS mRNA = eNOS mRNA in HCAE cells, RT-PCR and SYBR Green real-time PCR; type: cell-based, human
# Procedure: Human coronary artery endothelial cells (HCAE cells, Lonza, Walkersville, Md.) were cultured in 5% CO2 at 37° C. in endothelial cell growth medium (EGM) supplemented with 2% fetal bovine serum and Single Quot supplements (Clonetics, San Diego, Calif.; containing epidermal growth factor, hydrocortisone, vascular endothelial growth factor, fibroblast growth factor, insulin growth factor, ascorbic acid, heparin, gentamycin, and amphotericin B). Cells were used between passages 4 and 6 for these studies. HCAE cells were plated at a density of 50,000 cells per well in 12-well plates and were grown for 3 days to reach confluency. […] Cells were then incubated in normoxic or 1% hypoxic conditions for the indicated times. […] For RNA extraction, HCAE cells were cultured in 6-well plates.
# Total RNA was isolated using an Ambion isolation kit as described by the manufacturer.
# RT-PCR for eNOS was performed by Ready-to-Go RT-PCR Beads (Amersham Biosciences) using a two-step protocol. […]
# Samples were coded to provide blinded analysis. […] Quantitative PCR amplifications were done using 2 μl of cDNA in a total volume of 25 μl using SYBR green probes in the SYBR Green PCR Master Mix (ABI). […] The reverse-transcribed cDNA sample cycle threshold values were determined from triplicate samples and normalized to the 18S “housekeeping” gene.
# VEGF mRNA = VEGF mRNA expression in HCMVE cells, real-time PCR; type: cell-based, human; conditions: VEGF 10 ng/ml, 24 h
# Source text: Data from one experiment performed in triplicate are shown in FIG. 11 as mean±SD. *p<0.01 compared to control (C) cells in normoxia. ^#p<0.01 compared to control (C) cells in hypoxia.
# [2] = system: Human Lung Microvascular Endothelial Cells (HLME); assay: Survival of serum-deprived HLME cells; type: cell-based; conditions: serum-deprivation
# eNOS [3] = assay: VEGF-induced activation of eNOS in HCAE cells, western blot; type: cell-based, human; conditions: normoxic HCAE cells, VEGF 50 ng/ml, 1 minute
# Source text: The membrane was re-probed with anti-GAPDH (glyceraldehyde-3-phosphate dehydrogenase) antibody to show equal protein loading.
# [4] = system: Human coronary artery endothelial (HCAE) cells; assay: Transmembrane migration of endothelial cells toward VEGF (FluoroBlok inserts); type: cell-based; conditions: hypoxic, VEGF 10 ng/ml as chemoattractant, 22 h
# Procedure: Transmembrane cell migration assays were performed using BD FluoroBlok inserts (BD Bioscience, Bedford, Mass.) as described by the vendor. […] (V) or medium alone (C) was added to the lower chamber of the insert plate as a chemoattractant. Endothelial migration was performed in normoxic or 1% hypoxic conditions. After a 22-hour incubation, cells were labeled post-migration with Calcein AM and measured by detecting the fluorescence of the cells that migrated to the underside of the insert membrane.
# [5] = system: Human coronary artery endothelial (HCAE) cells; assay: Endothelial cell invasion through Matrigel toward VEGF; type: cell-based; conditions: normoxic or hypoxic, VEGF 10 ng/ml, no TP508
# Procedure: Endothelial cell invasion assays were performed using BD BioCoat™ Angiogenesis System (BD Bioscience, Bedford, Mass.) which utilizes FluoroBlok inserts coated with BD Matrigel Matrix (BD Bioscience, Bedford, Mass.). […] Endothelial cell invasion was performed in normoxic or hypoxic (1% O2) conditions. After 22 hours of incubation, cells were labeled post-invasion with Calcein AM and measured by detecting the fluorescence of the cells that migrated to the underside of insert membrane.
Substance,reduction of eNOS expression relative to normoxic controls (eNOS [1]),expression of arginase 1 (ARG1) relative to control cultures (arginase 1),"eNOS mRNA expression (RT-PCR) (eNOS mRNA; 6 h stimulation, 25 or 30 cycles, relative to controls)","decrease of eNOS mRNA level (eNOS mRNA; 24 h, real-time PCR)",VEGF mRNA in hypoxic cells (VEGF mRNA; hypoxic),decrease of VEGF mRNA expression compared to control cells (VEGF mRNA; normoxic),"cell survival, agent alone [2]","phosphorylation of eNOS on serine 1177, maximum (eNOS [3])",migration of control endothelial cells relative to media control cells [4],invasion of control endothelial cells through Matrigel toward human VEGF [5]
TNFα,45%,significant increase,drastically decreased,~80%,–,–,–,–,–,–
VEGF,–,–,–,–,"no effect, or decreased",2 fold,increased survival at lower levels,2 fold,~150%,not stimulated
